Reference: ChEMBL document CHEMBL5303761, “Data for DCP probe BI-3231” (2023)

Assays:
[1] = biological target: Adenosine receptor A2a (Homo sapiens) (UniProt P29274); test: A2A/H Eurofins SafetyScreen44 (BI); conditions: filed as antagonist, Compound concentration 10.0 uM
[2] = biological target: Histamine H2 receptor (Homo sapiens) (UniProt P25021); test: H2/APT/HS Eurofins SafetyScreen44 (BI); conditions: filed as antagonist, Compound concentration 10.0 uM
[3] = biological target: Sodium-dependent serotonin transporter (Homo sapiens) (UniProt P31645); conditions: Compound concentration 10.0 uM
[4] = biological target: 5-hydroxytryptamine receptor 2B (Homo sapiens) (UniProt P41595); conditions: Compound concentration 10.0 uM
[5] = biological target: T1, 5-hydroxytryptamine receptor 1A (Homo sapiens) (UniProt P08908); test: 5HT1A/H Eurofins SafetyScreen44 (BI); conditions: Compound concentration 10.0 uM
T1 sequence (whole entry): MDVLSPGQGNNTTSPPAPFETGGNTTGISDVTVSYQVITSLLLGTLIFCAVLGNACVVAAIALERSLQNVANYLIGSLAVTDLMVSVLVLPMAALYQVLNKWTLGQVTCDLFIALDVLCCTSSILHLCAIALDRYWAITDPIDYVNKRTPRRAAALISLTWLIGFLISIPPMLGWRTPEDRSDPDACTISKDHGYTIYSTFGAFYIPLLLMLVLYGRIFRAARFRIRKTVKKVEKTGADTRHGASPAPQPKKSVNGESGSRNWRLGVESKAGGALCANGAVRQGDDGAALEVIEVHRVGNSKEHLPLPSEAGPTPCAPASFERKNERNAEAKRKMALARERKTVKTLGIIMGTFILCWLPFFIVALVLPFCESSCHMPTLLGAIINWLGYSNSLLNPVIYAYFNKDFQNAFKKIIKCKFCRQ

[6] = biological target: Sigma non-opioid intracellular receptor 1 (Homo sapiens) (UniProt Q99720); conditions: Compound concentration 10.0 uM
[7] = biological target: Sodium-dependent dopamine transporter (Homo sapiens) (UniProt Q01959); test: DATRANS/HUM Eurofins SafetyScreen44 (BI); conditions: Compound concentration 10.0 uM
[8] = biological target: Glucocorticoid receptor (Homo sapiens) (UniProt P04150); test: GCORTICOID/H Eurofins SafetyScreen44 (BI); conditions: Compound concentration 10.0 uM
[9] = biological target: Tyrosine-protein kinase Lck (Homo sapiens) (UniProt P06239); test: LCK_CE Eurofins SafetyScreen44 (BI); conditions: Compound concentration 10.0 uM
[10] = biological target: Mu-type opioid receptor (Homo sapiens) (UniProt P35372); test: MU/H Eurofins SafetyScreen44 (BI); conditions: Compound concentration 10.0 uM
[11] = biological target: T2, 5-hydroxytryptamine receptor 3A (Homo sapiens) (UniProt P46098); test: 5HT3/H Eurofins SafetyScreen44 (BI); conditions: Compound concentration 10.0 uM
T2 sequence (whole entry): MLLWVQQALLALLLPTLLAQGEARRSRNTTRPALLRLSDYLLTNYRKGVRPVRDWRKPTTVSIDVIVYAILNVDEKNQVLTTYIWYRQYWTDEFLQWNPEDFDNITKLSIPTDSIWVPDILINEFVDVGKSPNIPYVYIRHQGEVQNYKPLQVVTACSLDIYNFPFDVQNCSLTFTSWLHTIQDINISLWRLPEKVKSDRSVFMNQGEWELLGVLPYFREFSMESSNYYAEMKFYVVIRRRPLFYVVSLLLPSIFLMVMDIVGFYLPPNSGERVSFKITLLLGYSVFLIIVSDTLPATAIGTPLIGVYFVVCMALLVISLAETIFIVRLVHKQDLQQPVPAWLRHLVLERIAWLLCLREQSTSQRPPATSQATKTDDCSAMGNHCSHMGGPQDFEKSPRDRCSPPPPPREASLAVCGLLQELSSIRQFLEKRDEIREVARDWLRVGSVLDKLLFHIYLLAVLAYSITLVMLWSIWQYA

[12] = biological target: Alpha-2C adrenergic receptor (Homo sapiens) (UniProt P18825); conditions: Compound concentration 10.0 uM
[13] = biological target: Muscarinic acetylcholine receptor M3 (Homo sapiens) (UniProt P20309); conditions: Compound concentration 10.0 uM
[14] = biological target: Prostaglandin G/H synthase 2 (Homo sapiens) (UniProt P35354); test: COX-2 Eurofins SafetyScreen44 (BI); conditions: Compound concentration 10.0 uM
[15] = biological target: D(3) dopamine receptor (Homo sapiens) (UniProt P35462); conditions: Compound concentration 10.0 uM
[16] = biological target: D(1B) dopamine receptor (Homo sapiens) (UniProt P21918); conditions: Compound concentration 10.0 uM
[17] = biological target: Beta-1 adrenergic receptor (Homo sapiens) (UniProt P08588); test: BETA1/HUM Eurofins SafetyScreen44 (BI); conditions: Compound concentration 10.0 uM
[18] = biological target: 5-hydroxytryptamine receptor 1D (Homo sapiens) (UniProt P28221); conditions: Compound concentration 10.0 uM
[19] = biological target: Histamine H3 receptor (Homo sapiens) (UniProt Q9Y5N1); conditions: Compound concentration 10.0 uM
[20] = biological target: voltage-dependent K+ channel (stored as IKs; KCNQ1/KCNE1) (Rattus norvegicus, UniProt P15383+Q9Z0N7); test: K+/VOLT/RA Eurofins SafetyScreen44 (BI); type: protein-complex assay; conditions: rat brain, probe [125I]alpha-dendrotoxin, compound concentration 10 uM, read-out: % Ctrl
[21] = biological target: Sodium-dependent dopamine transporter (Homo sapiens) (UniProt Q01959); conditions: Compound concentration 10.0 uM
[22] = biological target: Beta-2 adrenergic receptor (Homo sapiens) (UniProt P07550); test: BETA2/HUM Eurofins SafetyScreen44 (BI); conditions: filed as antagonist, Compound concentration 10.0 uM
[23] = biological target: 5-hydroxytryptamine receptor 1B (Homo sapiens) (UniProt P28222); test: 5HT1B(H) Eurofins SafetyScreen44 (BI); conditions: filed as antagonist, Compound concentration 10.0 uM
[24] = biological target: GABA-A receptor; anion channel (Rattus norvegicus) (UniProt O09028+P15431+P18506+P18508+P19969+P20236+P23574+P23576+P28471+P28473+P30191+P62813+P63079+P63138+Q91ZM7+Q9ES14); conditions: Compound concentration 10.0 uM
[25] = biological target: Muscarinic acetylcholine receptor M5 (Homo sapiens) (UniProt P08912); conditions: Compound concentration 10.0 uM
Chain of Muscarinic acetylcholine receptor M5 (Homo sapiens) (P08912 whole entry): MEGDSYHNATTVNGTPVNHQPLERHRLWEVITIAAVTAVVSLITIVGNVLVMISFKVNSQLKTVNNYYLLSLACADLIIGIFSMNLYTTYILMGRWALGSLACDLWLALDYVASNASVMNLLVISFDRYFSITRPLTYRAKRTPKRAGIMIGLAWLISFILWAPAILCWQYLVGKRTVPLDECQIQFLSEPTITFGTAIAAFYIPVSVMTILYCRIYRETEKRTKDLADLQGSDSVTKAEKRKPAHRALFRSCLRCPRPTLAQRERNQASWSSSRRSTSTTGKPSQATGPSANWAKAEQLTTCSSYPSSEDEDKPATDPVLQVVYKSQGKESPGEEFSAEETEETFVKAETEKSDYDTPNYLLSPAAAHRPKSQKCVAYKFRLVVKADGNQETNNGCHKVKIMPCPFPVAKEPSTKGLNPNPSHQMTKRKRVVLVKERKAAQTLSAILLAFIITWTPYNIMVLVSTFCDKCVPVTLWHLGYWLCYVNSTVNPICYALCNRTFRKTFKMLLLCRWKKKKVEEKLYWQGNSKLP

Chain of Muscarinic acetylcholine receptor M3 (Homo sapiens) (P20309 whole entry, looked up): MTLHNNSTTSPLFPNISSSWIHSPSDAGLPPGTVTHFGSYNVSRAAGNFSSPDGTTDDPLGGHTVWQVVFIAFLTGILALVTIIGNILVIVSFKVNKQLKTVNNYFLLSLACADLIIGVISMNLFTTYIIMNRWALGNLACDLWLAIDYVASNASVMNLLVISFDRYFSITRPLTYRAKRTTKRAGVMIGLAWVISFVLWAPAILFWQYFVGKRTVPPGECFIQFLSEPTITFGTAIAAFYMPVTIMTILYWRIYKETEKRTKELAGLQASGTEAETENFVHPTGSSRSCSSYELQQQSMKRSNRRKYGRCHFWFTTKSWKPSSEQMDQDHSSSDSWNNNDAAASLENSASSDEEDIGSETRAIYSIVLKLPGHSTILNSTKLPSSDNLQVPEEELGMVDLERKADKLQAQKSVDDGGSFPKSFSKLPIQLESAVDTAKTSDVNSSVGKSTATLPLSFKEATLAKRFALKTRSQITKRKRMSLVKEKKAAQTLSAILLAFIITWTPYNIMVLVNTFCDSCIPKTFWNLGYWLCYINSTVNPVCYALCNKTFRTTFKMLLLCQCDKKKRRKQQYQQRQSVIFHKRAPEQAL
Chain of 5-hydroxytryptamine receptor 2B (Homo sapiens) (P41595 whole entry): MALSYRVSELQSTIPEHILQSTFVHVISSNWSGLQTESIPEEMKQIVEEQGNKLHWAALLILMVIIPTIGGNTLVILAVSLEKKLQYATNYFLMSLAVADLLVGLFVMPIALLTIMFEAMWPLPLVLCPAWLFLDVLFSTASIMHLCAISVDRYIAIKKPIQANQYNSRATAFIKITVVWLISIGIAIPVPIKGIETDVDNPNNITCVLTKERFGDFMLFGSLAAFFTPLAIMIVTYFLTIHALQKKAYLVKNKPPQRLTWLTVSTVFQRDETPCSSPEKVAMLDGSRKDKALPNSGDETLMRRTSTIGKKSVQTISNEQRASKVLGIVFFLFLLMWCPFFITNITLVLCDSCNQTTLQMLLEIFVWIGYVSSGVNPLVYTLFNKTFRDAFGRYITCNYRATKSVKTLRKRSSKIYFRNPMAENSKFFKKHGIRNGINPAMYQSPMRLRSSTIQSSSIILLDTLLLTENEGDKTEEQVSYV
Chain of Sodium-dependent dopamine transporter (Homo sapiens) (Q01959 whole entry): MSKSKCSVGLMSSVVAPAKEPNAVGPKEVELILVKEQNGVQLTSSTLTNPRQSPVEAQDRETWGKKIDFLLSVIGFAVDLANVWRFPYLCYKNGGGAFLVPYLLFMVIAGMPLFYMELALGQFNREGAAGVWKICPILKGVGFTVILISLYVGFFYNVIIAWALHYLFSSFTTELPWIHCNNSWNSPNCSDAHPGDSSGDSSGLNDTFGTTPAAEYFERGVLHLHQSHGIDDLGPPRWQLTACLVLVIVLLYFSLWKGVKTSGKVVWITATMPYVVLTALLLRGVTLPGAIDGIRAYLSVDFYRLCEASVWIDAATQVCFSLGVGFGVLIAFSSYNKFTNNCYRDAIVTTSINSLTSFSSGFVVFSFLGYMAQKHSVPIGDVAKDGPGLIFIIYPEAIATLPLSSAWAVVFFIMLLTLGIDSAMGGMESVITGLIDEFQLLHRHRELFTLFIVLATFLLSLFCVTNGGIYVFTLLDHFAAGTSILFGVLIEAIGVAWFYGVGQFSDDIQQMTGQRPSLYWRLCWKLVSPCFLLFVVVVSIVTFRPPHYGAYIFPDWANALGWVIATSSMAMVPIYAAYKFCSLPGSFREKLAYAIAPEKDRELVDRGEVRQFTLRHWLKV
Chain of Alpha-2C adrenergic receptor (Homo sapiens) (P18825 whole entry): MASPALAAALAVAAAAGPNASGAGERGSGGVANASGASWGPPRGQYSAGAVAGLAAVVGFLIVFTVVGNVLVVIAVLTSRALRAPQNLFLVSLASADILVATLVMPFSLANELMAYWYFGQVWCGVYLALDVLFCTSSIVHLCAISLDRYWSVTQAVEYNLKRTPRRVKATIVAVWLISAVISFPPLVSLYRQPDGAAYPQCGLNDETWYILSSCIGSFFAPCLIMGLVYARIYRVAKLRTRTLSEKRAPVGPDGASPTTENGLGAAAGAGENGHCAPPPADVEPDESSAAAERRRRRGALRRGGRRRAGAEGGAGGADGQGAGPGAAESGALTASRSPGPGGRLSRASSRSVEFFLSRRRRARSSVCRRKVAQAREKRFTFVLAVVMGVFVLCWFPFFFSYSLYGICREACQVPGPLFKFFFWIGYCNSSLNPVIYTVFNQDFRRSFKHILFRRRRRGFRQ
Chain of Sodium-dependent serotonin transporter (Homo sapiens) (P31645 whole entry, looked up): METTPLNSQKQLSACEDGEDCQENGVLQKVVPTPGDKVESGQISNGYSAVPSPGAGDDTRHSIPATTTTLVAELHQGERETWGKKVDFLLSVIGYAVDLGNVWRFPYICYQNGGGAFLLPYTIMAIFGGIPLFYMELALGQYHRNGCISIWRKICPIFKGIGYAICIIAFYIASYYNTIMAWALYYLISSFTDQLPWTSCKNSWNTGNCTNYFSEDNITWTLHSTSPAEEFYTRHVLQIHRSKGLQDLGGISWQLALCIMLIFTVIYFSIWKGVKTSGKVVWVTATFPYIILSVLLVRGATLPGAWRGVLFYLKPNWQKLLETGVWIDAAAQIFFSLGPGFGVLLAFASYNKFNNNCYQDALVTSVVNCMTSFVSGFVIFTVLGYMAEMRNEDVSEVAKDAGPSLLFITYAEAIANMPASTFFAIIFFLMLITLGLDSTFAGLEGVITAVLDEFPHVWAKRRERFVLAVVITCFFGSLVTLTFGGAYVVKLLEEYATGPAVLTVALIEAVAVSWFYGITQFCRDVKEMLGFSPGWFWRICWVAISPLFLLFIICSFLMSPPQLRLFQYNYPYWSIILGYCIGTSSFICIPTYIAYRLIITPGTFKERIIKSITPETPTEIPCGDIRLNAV
Chain of Histamine H3 receptor (Homo sapiens) (Q9Y5N1 whole entry): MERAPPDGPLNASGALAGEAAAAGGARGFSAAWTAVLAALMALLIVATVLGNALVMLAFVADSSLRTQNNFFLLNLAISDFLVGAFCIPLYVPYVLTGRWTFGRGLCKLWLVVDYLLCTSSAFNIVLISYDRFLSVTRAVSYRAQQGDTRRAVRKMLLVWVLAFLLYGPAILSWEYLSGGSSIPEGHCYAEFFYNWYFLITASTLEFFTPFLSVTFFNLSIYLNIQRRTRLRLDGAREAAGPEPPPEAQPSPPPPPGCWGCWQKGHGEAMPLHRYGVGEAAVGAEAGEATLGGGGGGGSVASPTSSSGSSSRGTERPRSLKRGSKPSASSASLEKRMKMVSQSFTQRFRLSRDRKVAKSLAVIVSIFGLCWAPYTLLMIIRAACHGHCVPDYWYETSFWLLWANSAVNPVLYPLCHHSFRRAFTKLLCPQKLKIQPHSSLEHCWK
Chain of Sigma non-opioid intracellular receptor 1 (Homo sapiens) (Q99720 whole entry): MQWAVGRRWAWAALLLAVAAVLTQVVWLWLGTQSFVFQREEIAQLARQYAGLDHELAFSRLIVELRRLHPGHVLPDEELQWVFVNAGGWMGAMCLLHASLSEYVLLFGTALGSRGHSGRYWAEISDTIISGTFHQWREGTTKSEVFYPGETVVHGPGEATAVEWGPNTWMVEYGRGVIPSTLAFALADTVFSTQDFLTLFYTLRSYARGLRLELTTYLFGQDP
Chain of D(3) dopamine receptor (Homo sapiens) (P35462 whole entry): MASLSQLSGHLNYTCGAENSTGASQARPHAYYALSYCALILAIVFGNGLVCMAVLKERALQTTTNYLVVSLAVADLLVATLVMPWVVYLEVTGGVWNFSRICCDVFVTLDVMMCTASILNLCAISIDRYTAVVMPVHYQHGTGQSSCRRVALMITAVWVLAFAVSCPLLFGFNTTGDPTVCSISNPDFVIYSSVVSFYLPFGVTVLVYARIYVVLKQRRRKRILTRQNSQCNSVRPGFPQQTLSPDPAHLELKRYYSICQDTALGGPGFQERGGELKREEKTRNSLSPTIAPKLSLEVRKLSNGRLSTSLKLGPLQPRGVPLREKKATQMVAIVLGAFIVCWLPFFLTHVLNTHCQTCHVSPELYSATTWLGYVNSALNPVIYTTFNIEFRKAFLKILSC
Chain of D(1B) dopamine receptor (Homo sapiens) (P21918 whole entry): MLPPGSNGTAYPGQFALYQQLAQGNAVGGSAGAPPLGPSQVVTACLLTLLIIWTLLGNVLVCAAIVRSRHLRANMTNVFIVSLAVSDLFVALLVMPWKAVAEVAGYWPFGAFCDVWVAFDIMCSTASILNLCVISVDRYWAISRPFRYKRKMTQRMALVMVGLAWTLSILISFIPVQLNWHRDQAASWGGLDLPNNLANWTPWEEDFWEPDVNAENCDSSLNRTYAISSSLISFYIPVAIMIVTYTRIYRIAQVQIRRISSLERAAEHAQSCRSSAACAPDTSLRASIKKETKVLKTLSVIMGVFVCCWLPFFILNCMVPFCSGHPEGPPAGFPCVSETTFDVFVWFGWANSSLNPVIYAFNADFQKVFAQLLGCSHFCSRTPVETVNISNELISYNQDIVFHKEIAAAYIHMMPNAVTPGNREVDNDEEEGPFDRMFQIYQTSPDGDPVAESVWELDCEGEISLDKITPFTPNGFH

| Compound | residual activity [1] | residual activity [2] | inhibition [3] | inhibition [4] | residual activity [5] | inhibition [6] | residual activity [7] | residual activity [8] | residual activity [9] | residual activity [10] | residual activity [11] | inhibition [12] | inhibition [13] | residual activity [14] | inhibition [15] | inhibition [16] | residual activity [17] | inhibition [18] | inhibition [19] | activity at 10 µM [20] | further results |
| --- | --- | --- | --- | --- | --- | --- | --- | --- | --- | --- | --- | --- | --- | --- | --- | --- | --- | --- | --- | --- | --- |
| CCn1c(=O)c(C)cn(Cc2nnc(-c3ccc(F)c(OC)c3F)s2)c1=O | 81% | 107% | -7.45% | 28.5% | 94% | 16.4% | 86% | 88% | 110% | 102% | 98% | 2.05% | -1.37% | 44% | -2.24% | -6.46% | 94% | 15.8% | 11% | 104% (not active) | inhibition [21]: 12.4%; residual activity [22]: 105%; residual activity [23]: 103%; inhibition [24]: 19.9%; inhibition [25]: 0.59% |
| CCn1c(=O)c(C)cn(Cc2nnc(-c3ccc(F)c(O)c3F)s2)c1=O | 103% | 105% | -3.65% | -8.82% | 101% | 17.2% | 82% | 96% | 91% | 87% | 106% | 1.31% | -3.96% | 49% | 7.03% | 8.17% | 95% | 6.08% | 0.98% | 103% (not active) | inhibition [21]: 24.9%; residual activity [22]: 99%; residual activity [23]: 93%; inhibition [24]: 27.6%; inhibition [25]: -6.35% |
